≈ marks a conversion by molar mass, not a printed value. Like-named read-outs stand apart in the source and are kept apart here.
How the values were obtained:
[1] = tested on: PC-3 prostate cancer cells; assay: Example T: sensitisation of PC-3 cells to doxorubicin, oxaliplatin, paclitaxel or vincristine, Wst1; assay type: cell-based, human; conditions: PC-3 cells, 72 hours; for viability at 0.4 µM: Homo sapiens, compound 0.4 μM alone, Wst1, vehicle = 100, read-out: No Chemo: percent cell survival; for Doxorubicin 3.5 μM: percent cell survival: compound 0.4 μM + doxorubicin 3.5 μM; for Doxorubicin 3.5 μM: percent cell survival / Oxaliplatin 100 μM: percent cell survival / Paclitaxel 50 μM: percent cell survival / Vincristine 100 nM: percent cell survival: chemotherapy agent alone normalized to 100%; for Oxaliplatin 100 μM: percent cell survival: compound 0.4 μM + oxaliplatin 100 μM; for Paclitaxel 50 μM: percent cell survival: compound 0.4 μM + paclitaxel 50 μM; for Vincristine 100 nM: percent cell survival: compound 0.4 μM + vincristine 100 nM
[2] = tested on: Cryptococcus neoformans strains; assay: Example N: MIC and MFC (CLSI) against Cryptococcus neoformans; assay type: cell-based; set-up: MIC at 50% inhibition: unit not given here; conditions: for MIC / MFC: Cryptococcus neoformans, three clinical strains; for MIC: read-out: MIC 100%, Range, incubated for 72 hrs
Method: (§1) The objective of this study was to determine the antifungal activity of eight experimental compounds against a representative panel of fungal isolates, including Candida albicans, C. glabrata, Cryptococcus neoformans, Trichophyton rubrum, Aspergillus fumigatus, and Rhizopus spp. Antifungal activity was measured by minimum inhibitory concentration (MIC) and minimum fungicidal concentration (MFC).
(§2) Three recent clinical strains of each species, taken from the culture collection at the Center for Medical Mycology, Case Western University, were tested.
(§3) Compounds in powder form were dissolved in DMSO. Serial dilutions of each compound were then prepared in RPMI-1640 in a range of […].
(§4) MIC testing was performed according to the CLSI M27-A3 and M38-A2 standards for the susceptibility testing of yeasts and filamentous fungi, respectively (1, 2). Test isolates were subcultured from frozen slants onto potato dextrose agar plates (Trichophyton rubrum was subcultured onto oatmeal plates for conidia production) and checked for purity. Inocula were then prepared in RPMI-1640 (YNB for Cryptococcus) to a concentration of 0.5-2.5×10^3 colony-forming units (CFU)/ml or 0.4-5×10^4 conidia/ml for yeast and filamentous fungi, respectively.
(§5) MFC determinations were performed according to the modifications previously described by Canton et al. and Ghannoum and Isham. (3, 4) Specifically, the total contents of each clear well from the MIC assay were subcultured onto potato dextrose agar. To avoid antifungal carryover, the aliquots were allowed to soak into the agar and then were streaked for isolation once dry, thus removing the cells from the drug source.

[3] = tested on: Trichophyton rubrum strains; assay: Example N: MIC and MFC (CLSI) against Trichophyton rubrum; assay type: cell-based; conditions: for MIC: read-out: MIC 100%, Range, incubated for 96 hrs, three clinical strains; for MFC: three clinical strains
Method: as §1, §2, §3, §4, §5

THP-1 cells = assay: Example D: LPS-triggered THP-1 cell death assay, acute/5-hour and chronic/48-hour; assay type: cell-based, Human; conditions: for Viable cell percent change, Chronic/48-hour, Mean: 10 ng/ml LPS, 0.1 μM test compound
Method: Compounds of the invention were tested at 0.1 μM versus AC in the LPS-triggered THP-1 cell death assay. Both acute/5-hour and chronic/48-hour phases of cell death were assessed. Compounds were screened in batches with DMSO as the negative control and AC as the high activity control.

S. cerevisiae = assay: Example I: Saccharomyces cerevisiae growth inhibition (OD 600 nm); assay type: cell-based; conditions: Saccharomyces cerevisiae, 18 hour incubation at 30° C., OD 600 nm, XLfit; for IC50: read-out: IC50, uM (50% inhibition of fungal growth); for MIC: read-out: MIC, uM (99% of inhibition of fungal growth)
[4] = tested on: 4T1 murine breast cancer cells; assay: Example S: in vitro anticancer screen, 4T1 cells, Wst1; assay type: cell-based, mouse; conditions: Mus musculus, 4T1, 18 h, 18 hr, Wst1; for viability at 1 µM: read-out: 4T1 1 μM, percent of cancer cell survival relative to vehicle treated cells; for viability at 5 µM: read-out: 4T1 5 μM, percent of cancer cell survival relative to vehicle treated cells
Outline: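 Read-out is Wst1 absorbance (450 nm, reference 630 nm) after roughly 2 hr dye incubation, giving percent cell survival versus vehicle. Before that, compounds at 1 μM or 5 μM were applied for 18 hr to 4T1 cells plated at 1×10^4 per well.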

Candida glabrata strains = assay: Example N: MIC and MFC (CLSI) against Candida glabrata; assay type: cell-based; conditions: Nakaseomyces glabratus; for MIC: read-out: MIC 100%; for MFC: range over Candida glabrata strains, in 48 hr
Method: as §1, §2, §3, §4, §5

Rhizopus strains = assay: Example N: MIC and MFC (CLSI) against Rhizopus; assay type: cell-based, Rhizopus spp.; conditions: for MIC50 / MIC: Rhizopus; for MIC: read-out: MIC 100%; for MFC: range over Rhizopus strains, in 48 hr
Method: as §1, §2, §3, §4, §5

[5] = tested on: PC3 human prostate cancer cells; assay: Example S: in vitro anticancer screen, PC-3 cells, Wst1; assay type: cell-based; conditions: Homo sapiens, PC-3; 0.4 μM, approximately 20 hours, Wst1; read-out: PC-3, percent of cancer cell survival relative to vehicle treated cells
Outline: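 Values give percent survival relative to vehicle, read by Wst1 absorbance (450/630 nm) after 2 h dye incubation, in triplicate. Cells were seeded at 2×10^4/well and treated about 20 h with compound at 0.4, 0.5 or 2.5 μM, depending on compound.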

| SMILES | viability at 0.4 µM [1] [%] | Doxorubicin 3.5 μM: percent cell survival [1] [%] | Oxaliplatin 100 μM: percent cell survival [1] [%] | Paclitaxel 50 μM: percent cell survival [1] [%] | Vincristine 100 nM: percent cell survival [1] [%] | MIC [2] [µg/mL] | MFC [2] [µg/mL] | MIC [3] [µg/mL] | MFC [3] [µg/mL] | Viable cell percent change, Chronic/48-hour, Mean (THP-1 cells) [%] | IC50 (S. cerevisiae) [µM] | MIC50 (Candida glabrata strains; 24 h) [µg/mL] | MIC (Candida glabrata strains; 24 h) [µg/mL] | MIC50 (Candida glabrata strains; 48 h) [µg/mL] | MIC (Candida glabrata strains; 48 h) [µg/mL] | MFC (Candida glabrata strains) [µg/mL] | MIC50 (Rhizopus strains; 24 h) [µg/mL] | MIC (Rhizopus strains; 24 h) [µg/mL] | MIC50 (Rhizopus strains; 48 h) [µg/mL] | MIC (Rhizopus strains; 48 h) [µg/mL] | further results |
| --- | --- | --- | --- | --- | --- | --- | --- | --- | --- | --- | --- | --- | --- | --- | --- | --- | --- | --- | --- | --- | --- |
| CCCCCCOCCCCCCCCNc1ccnc2c(Cl)cccc12 [Compound AX, 8-Chloro-N-[8-(hexyloxy)octyl]quinolin-4-amine] | 31.2 | 57.9 | 49.5 | 26.7 | 31.5 | 0.5 to 4 (≈ 1.28 to 10.2 µM) | 4 to 8 (≈ 10.2 to 20.5 µM) | 0.25 to 8 (≈ 0.639 to 20.5 µM) | 2 to 8 (≈ 5.12 to 20.5 µM) | 18.20 | 19.6 | 2 (≈ 5.12 µM) | 8 (≈ 20.5 µM) | 8 (≈ 20.5 µM) | 8 (≈ 20.5 µM) | 8 to 64 (≈ 20.5 to 164 µM) | 0.5 to 1 (≈ 1.28 to 2.56 µM) | 1 to 2 (≈ 2.56 to 5.12 µM) | 1 (≈ 2.56 µM) | 1 to 2 (≈ 2.56 to 5.12 µM) | MIC at 50% inhibition [2]: 0.12-2; cidal activity (MFC within 4 dilutions of the MIC), in words ([2]; 3 isolates): cidal against all 3 neoformans isolates; MIC (S. cerevisiae): 19.9 µM (≈ 7.79 µg/mL); viability at 1 µM [4]: 24.3%; viability at 5 µM [4]: 18%; MFC (Rhizopus strains): > 64 µg/mL; viability at 0.4 µM [5]: 31.2% |
| CCCCCCOCCCCCCCCNc1ccnc2cc(Cl)ccc12 [AW, 7-Chloro-N-[8-(hexyloxy)octyl]quinolin-4-amine] | 38.2 | 59.5 | 70 | 51.3 | 33.6 | 2 (≈ 5.12 µM) | 2 to 8 (≈ 5.12 to 20.5 µM) | 1 to 16 (≈ 2.56 to 40.9 µM) | 8 to 16 (≈ 20.5 to 40.9 µM) |  | 9.73 | 4 (≈ 10.2 µM) | 8 (≈ 20.5 µM) | 8 (≈ 20.5 µM) | 8 to 16 (≈ 20.5 to 40.9 µM) | 16 to 32 (≈ 40.9 to 81.8 µM) | 4 (≈ 10.2 µM) | 4 to 8 (≈ 10.2 to 20.5 µM) | 4 to 8 (≈ 10.2 to 20.5 µM) | 8 (≈ 20.5 µM) | MIC (S. cerevisiae): 10.2 µM (≈ 4 µg/mL); viability at 1 µM [4]: 44.2%; viability at 5 µM [4]: 18%; viability at 0.4 µM [5]: 38.2% |
| COc1ccc(OCCCCCCCCNc2ncnc3ccccc23)cc1 [AE, N-[8-(4-Methoxyphenoxy)octyl]quinazolin-4-amine] |  |  |  |  |  | 0.25 to 4 (≈ 0.659 to 10.5 µM) | 1 to 8 (≈ 2.64 to 21.1 µM) | 4 to 16 (≈ 10.5 to 42.2 µM) | 4 to 16 (≈ 10.5 to 42.2 µM) | 4.11 |  | 4 (≈ 10.5 µM) | 4 (≈ 10.5 µM) | 4 to 8 (≈ 10.5 to 21.1 µM) | 4 to 8 (≈ 10.5 to 21.1 µM) | 16 to 64 (≈ 42.2 to 169 µM) | < 0.12 | 1 to 2 (≈ 2.64 to 5.27 µM) | 1 to 2 (≈ 2.64 to 5.27 µM) | 1 to 4 (≈ 2.64 to 10.5 µM) | activity relative to AC in the LPS-triggered THP-1 cell death assay, in words (THP-1 cells; 0.1 μM, 5-hour and 48-hour time points): equivalent activity to AC at both the 5-hour and 48-hour time points; MIC at 50% inhibition (Rhizopus strains; 24 hrs): < 0.12 µg/mL; MFC (Rhizopus strains): 64 µg/mL (≈ 169 µM) |

From patent publication US20250034139A1, “AMINE COMPOUNDS HAVING ANTI-INFLAMMATORY, ANTIFUNGAL, ANTIPARASITIC, AND ANTICANCER ACTIVITY” (PHARMA CINQ, LLC, priority 2013, published 2025)
